Results on three compounds are retold here after patent publication US20180256570A1, “TOPICAL FORMULATIONS” (IGNYTA, INC., priority 2015, published 2018).

A short description of data set [1]: Accumulation in epidermis and dermis of human skin after permeability assay. In kind it is in vitro ADME. From the text:
All chambers were covered to minimize evaporation.
The concentration of the test compounds is expressed as the amount (μg) normalized by the tissue weight of each layer (g).

A short description of data set [2]: Human cadaver skin permeability assay, Franz diffusion cells (flux, Papp).
Protocol: Static, vertical glass Franz diffusion cells were used for the permeability assay.
The dosing solution with control compounds (atenolol and testosterone, 100 μM each) was prepared in PBS buffer at pH 7.4 immediately prior to the start of the permeability experiments. The skin was kept frozen at −80° C. until the time of the study. The skin was thawed at room temperature and cut to appropriate size (˜2×2 cm). The thickness of each piece was measured and they were grouped based on thickness to ensure that the average thickness was similar across groups. Tissue was mounted in the Franz cell diffusion chamber and clamped between the donor and receiver chambers. The exposed surface area of the Franz cell diffusion chamber was 1.77 cm^2. The receiver compartment was filled with 8 mL PBS at pH 7.4 with 1% Oleth 20 for all test groups, or PBS at pH 7.4 for the control group. The reservoir also contained a magnetic stir bar, stirring at 400 RPM to ensure homogeneity of the reservoir contents. […]
Each formulated test compound (35.4 μL by volume) was dispensed into the donor chamber using the reverse pipetting technique, after warming the cream in a water bath at 37° C. […] Each formulation was also analyzed to verify the concentration of the test compound. […]
A short description of data set [3]: Solubility in IPA/DMSO and IPA/water/DMSO solutions. In kind it is physicochemical.
Data set [4] is described as follows: Stress testing with pure excipients (adduct formation). In kind it is physicochemical. The protocol:
Stress testing with pure excipients was also conducted.

The nature of data set [5]: Solubility in common topical excipients and solvent mixtures. In kind it is physicochemical.

In the case of `Cc1c(C(=O)Nc2ccc(N3C[C@@H](C)O[C@@H](C)C3)nc2)cccc1-c1ccc(OC(F)(F)F)cc1` [LDE225], in data set [1], the “accumulation in dermis, comparison” value was “significantly less” and the “accumulation in epidermis, comparison” value is reported as “significantly less”. The “flux, comparison between formulations” value in data set [2] (human cadaver skin) is recorded as “tended to be lower than that of Formulation A2”.

For the compound `C[C@]12CC[C@H]3[C@@H](CCC4=CC(=O)CC[C@@]43C)[C@@H]1CC[C@@H]2O` [testosterone], the “ratio of testosterone to atenolol Papp” value in data set [2] (control compounds, 100 μM each in PBS pH 7.4) is given as “greater than 2”.

With `CN(C(=O)c1ccc(F)cc1C(F)(F)F)C1CCN(c2nnc(-c3ccnn3C)c3ccccc23)CC1` [4-fluoro-N-methyl-N-(1-(4-(1-methyl-1H-pyrazol-5-yl)phthalazin-1-yl)piperidin-4-yl)-2-(trifluoromethyl)benzamide], the “solubility in IPA/DMSO solutions” value in data set [3] (above 20% DMSO, increasing DMSO, absence of water) is “increased”. In data set [3] (as percentage of water increased (5%, 10%, 20% or 30% water)), the “solubility in IPA/water/DMSO solutions” value is “less solubility”. For the same compound, the adduct formation entry was “Adducts were observed” in data set [4] (excipients containing unhindered hydroxyl groups (ethanol, benzyl alcohol, Transcutol)) and “no adduct was observed” in data set [4] (isopropyl alcohol). Moreover, the “Solubility in cosolvent, aqueous and lipophilic mixtures” value in data set [5] (Table 2 (not given)) is “solubility is highest in ethanol/water mixtures”. For the same compound, the Solubility stood at 27.65 mg/g in data set [5] (solvent DMSO); 13.66 mg/g in data set [5] (solvent EtOH); 2.51 mg/g in data set [5] (solvent EtOH-Water (1:1) v/v); 18.76 mg/g in data set [5] (solvent EtOH-Water (3:1) v/v); 18.73 mg/g in data set [5] (solvent IPA-Water (3:1) v/v); 5.15 mg/g in data set [5] (solvent Isopropyl alcohol). Besides, the Solubility in data set [5] (solvent NMP) worked out at 107.02 mg/g.
